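The compound was tested at five concentrations on cells cultured in 96-well plates, with a 48-hour exposure period. At the GI50, growth is halved.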 The source made the active and inactive calls. Rule as the data show it: active = GI50 up to about 1.1 µM and inactive = higher.
What was measured:
Assay in all cases: growth of human tumour cells (NCI), 48 h
[1] = tested on: M14
[2] = tested on: TK-10
[3] = tested on: SW-620
[4] = tested on: NCI-H460
[5] = tested on: MDA-MB-435
[6] = tested on: ACHN
[7] = tested on: HOP-62
[8] = tested on: RPMI-8226
[9] = tested on: SF-539
[10] = tested on: EKVX
[11] = tested on: SK-MEL-2
[12] = tested on: BT-549
[13] = tested on: UO-31
[14] = tested on: A498
[15] = tested on: HL-60
[16] = tested on: PC-3
[17] = tested on: HCT-116
[18] = tested on: CAKI-1
[19] = tested on: KM12
[20] = tested on: MDA-MB-231

Measured: GI50

Cc1nc2c(O)cccc2c(=O)[nH]1
inactive: [1] 611 µM | [2] 302 µM | [3] > 1000 µM | [4] 263 µM | [5] 883 µM | [6] 348 µM | [7] 437 µM | [8] 135 µM | [9] 355 µM | [10] 456 µM | [11] > 1000 µM | [12] 174 µM | [13] 282 µM | [14] 419 µM | [15] 174 µM | [16] 451 µM | [17] 341 µM | [18] 256 µM | [19] 332 µM

CCCC1C(CC)C(NC)C(C#N)(C#N)C1(C#N)C#N (stereo not given)
inactive: [1] 35.6 µM | [2] 16.9 µM | [3] 36.8 µM | [5] 25.3 µM | [6] 18.1 µM | [7] 15 µM | [8] 17.1 µM | [9] 16.8 µM | [10] 25.2 µM | [11] 18.9 µM | [13] 14.6 µM | [14] 15.6 µM | [15] 20.4 µM | [16] 18.1 µM | [17] 15.1 µM | [18] 11.4 µM | [20] 15.2 µM | [19] 16.4 µM

Cc1cc(Cl)ccc1NC(=O)C1C(=O)N(c2ccc(Cl)cc2C)C(=O)/C1=N\N (stereo not given)
inactive: [1] 61.2 µM | [2] 34.3 µM | [3] 42.4 µM | [4] 51.6 µM | [6] 34.1 µM | [7] 40.7 µM | [8] 25.4 µM | [9] 44.6 µM | [10] 57.5 µM | [11] 27 µM | [13] 33 µM | [14] 28.3 µM | [15] 24.5 µM | [17] 30.5 µM | [18] 35.6 µM | [19] 25.4 µM

Cc1cc(C)nc(NS(=O)(=O)c2ccc(NC(=O)NC(F)(F)F)cc2)n1
inactive: [1] > 100 µM | [2] > 100 µM | [3] > 100 µM | [5] > 100 µM | [6] > 100 µM | [8] > 100 µM | [9] > 100 µM | [10] > 100 µM | [11] > 100 µM | [12] > 100 µM | [13] > 100 µM | [14] > 100 µM | [15] > 100 µM | [16] > 100 µM | [17] > 100 µM | [18] 1.95 µM

COC(=O)NNC(=O)OC.COC(=O)Nc1ccccc1NC(=O)OC.COC(=O)Oc1nn(C(=O)OC)c(=O)c2ccccc12
inactive: [1] > 100 µM | [2] > 100 µM | [3] > 100 µM | [4] > 100 µM | [5] > 100 µM | [6] > 100 µM | [7] > 100 µM | [8] > 100 µM | [9] > 100 µM | [10] > 100 µM | [11] > 100 µM | [13] > 100 µM | [14] 39.1 µM | [15] > 100 µM | [16] > 100 µM | [17] > 100 µM | [18] > 100 µM | [20] > 100 µM | [19] > 100 µM

O=C1NCC2(CCN(CCCC3(c4ccc(F)cc4)OCCO3)CC2)N1c1ccccc1
inactive: [1] > 100 µM | [2] > 100 µM | [3] 32.7 µM | [4] > 100 µM | [5] > 100 µM | [6] > 100 µM | [7] > 100 µM | [8] > 100 µM | [9] > 100 µM | [10] > 100 µM | [11] > 100 µM | [14] 86.3 µM | [15] > 100 µM | [16] > 100 µM | [17] > 100 µM | [18] 50.1 µM | [20] > 100 µM | [19] > 100 µM

N#CCCC(CC#N)N1CCN(CCO)CC1 (stereo not given)
inactive: [1] > 100 µM | [2] > 100 µM | [3] > 100 µM | [4] > 100 µM | [5] > 100 µM | [6] > 100 µM | [7] > 100 µM | [8] > 100 µM | [9] > 100 µM | [10] > 100 µM | [13] > 100 µM | [14] > 100 µM | [15] > 100 µM | [17] > 100 µM | [20] > 100 µM | [19] > 100 µM

CC(C)(C)OC(=O)n1cc(C2CNC(=O)C23CCC(=O)N3Cc2ccccc2)c2ccccc21 (stereo not given)
inactive: [1] 27.4 µM | [2] 17.1 µM | [3] 33.5 µM | [4] 20.7 µM | [5] 20 µM | [7] 24.8 µM | [8] 18.7 µM | [9] 19.4 µM | [10] 22.4 µM | [11] 17.2 µM | [13] 22.1 µM | [14] 20 µM | [15] 28.1 µM | [16] 25.6 µM | [17] 32.7 µM | [18] 36.9 µM | [20] 16.8 µM | [19] 25.5 µM

From ChEMBL document CHEMBL1201862, “PubChem BioAssay data set” (2004)
